Results published in ChEMBL document CHEMBL1201862, “PubChem BioAssay data set” (2004).
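Exposure lasted 48 hours, with cells grown in 96-well plates and compounds tested at five concentrations. GI50: concentration for 50% inhibition of growth.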 Active and inactive are the calls of the source. Rule as the data show it: active = GI50 up to about 1.1 µM and inactive = higher.

Experiments:
Test in all cases: NCI anticancer screen, dose series, 48 h
[1] = system: TK-10
[2] = system: NCI/ADR-RES
[3] = system: UACC-257
[4] = system: HL-60
[5] = system: CCRF-CEM
[6] = system: NCI-H226
[7] = system: DU-145
[8] = system: MDA-N
[9] = system: SF-539
[10] = system: CAKI-1
[11] = system: KM12
[12] = system: SN12C
[13] = system: MOLT-4
[14] = system: 786-0
[15] = system: OVCAR-4
[16] = system: SNB-75
[17] = system: HCC 2998
[18] = system: OVCAR-5
[19] = system: EKVX
[20] = system: HCT-116
[21] = system: Malme-3M
[22] = system: SW-620
[23] = system: A498
[24] = system: SK-MEL-28
[25] = system: UACC-62
[26] = system: BT-549
[27] = system: MCF7
[28] = system: MDA-MB-231
[29] = system: LOX IMVI
[30] = system: HOP-62
[31] = system: NCI-H23
[32] = system: OVCAR-3
[33] = system: Hs-578T
[34] = system: ACHN
[35] = system: SK-OV-3
[36] = system: PC-3
[37] = system: SNB-19
[38] = system: U-251
[39] = system: COLO 205
[40] = system: SK-MEL-5
[41] = system: IGROV-1
[42] = system: NCI-H460
[43] = system: RXF 393
[44] = system: MDA-MB-435
[45] = system: HCT-15
[46] = system: SF-268
[47] = system: M14
[48] = system: A549
[49] = system: NCI-H522
[50] = system: SF-295
[51] = system: SK-MEL-2
[52] = system: T47D
[53] = system: OVCAR-8
[54] = system: RPMI-8226
[55] = system: K562
[56] = system: HT-29
[57] = system: HOP-92
[58] = system: UO-31

For Cc1cccc2[nH]c3c(c(O)cc4[nH]c5cccc(C)c5c(=O)c43)c(=O)c12, the GI50 [1] was 5.08 µM (inactive), the GI50 [2] was > 10 µM (inactive) and the GI50 [3] was 4.55 µM (inactive). For the same compound, the GI50 [4] was 3.33 µM (inactive), the GI50 [5] was > 10 µM (inactive) and the GI50 [6] was 5.16 µM (inactive). The GI50 [7] was 5.98 µM (inactive), the GI50 [8] was > 10 µM (inactive) and the GI50 [9] was > 10 µM (inactive). For the same compound, the GI50 [10] was > 10 µM (inactive), the GI50 [11] was 6.87 µM (inactive) and the GI50 [12] was 4.97 µM (inactive). The GI50 [13] was 3.88 µM (inactive), the GI50 [14] was 2.99 µM (inactive) and the GI50 [15] was 4.33 µM (inactive). For the same compound, the GI50 [16] was > 10 µM (inactive), the GI50 [17] was > 10 µM (inactive) and the GI50 [18] was > 10 µM (inactive). For the same compound, the GI50 [19] was 6.53 µM (inactive), the GI50 [20] was 3.65 µM (inactive) and the GI50 [21] was 6.95 µM (inactive). The GI50 [22] was 6.11 µM (inactive), the GI50 [23] was > 10 µM (inactive) and the GI50 [24] was > 10 µM (inactive). The GI50 [25] was > 10 µM (inactive), the GI50 [26] was 3.63 µM (inactive) and the GI50 [27] was > 10 µM (inactive). For the same compound, the GI50 [28] was 8.11 µM (inactive), the GI50 [29] was 3.65 µM (inactive) and the GI50 [30] was > 10 µM (inactive). The GI50 [31] was 3 µM (inactive), the GI50 [32] was 6 µM (inactive) and the GI50 [33] was 7.19 µM (inactive). The GI50 [34] was 5.83 µM (inactive), the GI50 [35] was > 10 µM (inactive) and the GI50 [36] was 4.06 µM (inactive). For the same compound, the GI50 [37] was > 10 µM (inactive), the GI50 [38] was 3.3 µM (inactive) and the GI50 [39] was 3.84 µM (inactive). The GI50 [40] was 9.04 µM (inactive), the GI50 [41] was 5.74 µM (inactive) and the GI50 [42] was 5.57 µM (inactive). For the same compound, the GI50 [43] was 7 µM (inactive), the GI50 [44] was 4.89 µM (inactive) and the GI50 [45] was > 10 µM. The GI50 [46] was > 10 µM (inactive), the GI50 [47] was 4.47 µM (inactive) and the GI50 [48] was > 10 µM (inactive). The GI50 [49] was > 10 µM (inactive), the GI50 [50] was 7.53 µM (inactive) and the GI50 [51] was > 10 µM (inactive). For the same compound, the GI50 [52] was 8.83 µM (inactive), the GI50 [53] was 6.11 µM (inactive) and the GI50 [54] was > 10 µM (inactive). The GI50 [55] was 4.02 µM (inactive) and the GI50 [56] was 3.85 µM (inactive).
For CC(C)C1/C(=N/O)CC(c2ccccc2)N(N=O)C1c1ccccc1 (configuration not stated), the GI50 [1] was 62.2 µM (inactive), the GI50 [2] was 35.1 µM (inactive) and the GI50 [3] was 40.7 µM (inactive). For the same compound, the GI50 [4] was 32.1 µM (inactive), the GI50 [5] was 26.9 µM (inactive) and the GI50 [6] was 37.1 µM (inactive). The GI50 [7] was 34 µM (inactive), the GI50 [8] was 39.2 µM (inactive) and the GI50 [9] was 57.8 µM (inactive). For the same compound, the GI50 [10] was 19.2 µM (inactive), the GI50 [57] was 33.7 µM (inactive) and the GI50 [11] was 31.8 µM (inactive). For the same compound, the GI50 [12] was 53.7 µM (inactive), the GI50 [13] was 32.3 µM (inactive) and the GI50 [14] was 31.1 µM (inactive). The GI50 [15] was 22.8 µM (inactive), the GI50 [16] was 38.8 µM (inactive) and the GI50 [17] was 37.2 µM (inactive). For the same compound, the GI50 [19] was 20.9 µM (inactive), the GI50 [20] was 28.5 µM (inactive) and the GI50 [21] was 23 µM (inactive). The GI50 [22] was 40.6 µM (inactive), the GI50 [24] was 50.1 µM (inactive) and the GI50 [25] was 19.7 µM (inactive). The GI50 [26] was 50.2 µM (inactive), the GI50 [27] was 32.4 µM (inactive) and the GI50 [28] was 81.3 µM (inactive). For the same compound, the GI50 [29] was 28.8 µM (inactive), the GI50 [30] was 72.6 µM (inactive) and the GI50 [31] was 47.1 µM (inactive). For the same compound, the GI50 [32] was 36.8 µM (inactive), the GI50 [33] was 17.5 µM (inactive) and the GI50 [34] was 36.4 µM (inactive). The GI50 [35] was 24.8 µM (inactive), the GI50 [36] was 33.3 µM (inactive) and the GI50 [37] was > 100 µM (inactive). The GI50 [38] was 52.7 µM (inactive), the GI50 [39] was 16.9 µM (inactive) and the GI50 [40] was 30.2 µM (inactive). For the same compound, the GI50 [41] was 68.2 µM (inactive), the GI50 [42] was 24.7 µM (inactive) and the GI50 [43] was 20.9 µM (inactive). The GI50 [44] was 26.7 µM (inactive), the GI50 [45] was 40.6 µM and the GI50 [46] was 51.8 µM (inactive). For the same compound, the GI50 [58] was 33.3 µM (inactive), the GI50 [47] was 40.7 µM (inactive) and the GI50 [48] was 30.1 µM (inactive). The GI50 [49] was 37 µM (inactive), the GI50 [50] was 30.5 µM (inactive) and the GI50 [51] was 24.5 µM (inactive). For the same compound, the GI50 [52] was 39.6 µM (inactive), the GI50 [53] was 57 µM (inactive) and the GI50 [54] was 45.4 µM (inactive). For the same compound, the GI50 [55] was 35.5 µM (inactive) and the GI50 [56] was 21.2 µM (inactive).
